Data set [1] is described as follows: Toxicity in C57BL/6 mouse assessed as change in body weight at 5 to 10 mg/kg, ip administered 5 days per week for 2 weeks. To be noted: in vivo, 336 h, dose 5-10 mg/kg. Type of data set: organism-based.
The next data set deals with Histone deacetylase 2 (Homo sapiens, UniProt Q92769). Put plainly: Inhibition of recombinant human HDAC2 using p53 (Ac-RHKK(Acetyl)-AMC) as substrate preincubated for 5 mins followed by substrate addition and measured after 30 mins by fluorescence based analysis.
Data set [2] can be described thus: Toxicity in C57BL/6 mouse assessed as change in heart weight at 5 to 10 mg/kg, ip administered 5 days per week for 2 weeks by H and E staining based assay. It is filed as organism-based. To be noted: in vivo, 336 h, dose 5-10 mg/kg.
The nature of data set [3]: Toxicity in C57BL/6 mouse assessed as change in kidney weight at 5 to 10 mg/kg, ip administered 5 days per week for 2 weeks by H and E staining based assay. It is filed as organism-based. The following applies: in vivo, 336 h, dose 5-10 mg/kg.
In data set [4] the target is T1, Histone deacetylase 8 (Homo sapiens) (UniProt Q9BY41).
T1 sequence (whole entry): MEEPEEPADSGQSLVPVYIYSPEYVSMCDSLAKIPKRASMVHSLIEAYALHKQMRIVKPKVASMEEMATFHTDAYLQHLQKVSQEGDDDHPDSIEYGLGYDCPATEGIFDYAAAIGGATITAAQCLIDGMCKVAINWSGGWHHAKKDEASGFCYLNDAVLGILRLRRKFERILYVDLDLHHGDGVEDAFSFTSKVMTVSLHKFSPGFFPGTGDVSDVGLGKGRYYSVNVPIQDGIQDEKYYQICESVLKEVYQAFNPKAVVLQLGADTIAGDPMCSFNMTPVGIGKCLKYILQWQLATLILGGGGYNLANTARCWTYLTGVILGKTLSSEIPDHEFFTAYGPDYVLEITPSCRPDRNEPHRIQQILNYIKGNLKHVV
The experiment in a line: Inhibition of HDAC8 in human Jurkat T cells assessed as increase in H3K27 acetylation at 10 uM after 6 hrs by Western blot analysis. Type of data set: cell-based. In general terms: In western blotting, separated proteins are transferred to a membrane and probed.

Data set [5] concerns the target T1, Histone deacetylase 8 (Homo sapiens). Put plainly: Inhibition of HDAC8 in human Jurkat T cells assessed as upregulation of IL15 expression after 6 hrs by RT-qPCR analysis. Type of data set: cell-based. The following applies: dose 0.1-10 µM, DDE = dose-dependent effect. On the technique in general: In qPCR the cycle at which signal appears reflects the starting amount.

Data set [6] can be described thus: Toxicity in C57BL/6 mouse assessed as change in intestine weight at 5 to 10 mg/kg, ip administered 5 days per week for 2 weeks by H and E staining based assay. Type of data set: organism-based. The following applies: in vivo, 336 h, dose 5-10 mg/kg.
Data set [7] has as its target T1, Histone deacetylase 8 (Homo sapiens). The experiment in a line: Inhibition of HDAC8 in human Jurkat T cells assessed as upregulation of KLRG expression at 10 uM after 6 to 12 hrs by RT-qPCR analysis. Type of data set: cell-based. To be noted: time 6-12 hrs.
For data set [8] the target is unchanged. Put plainly: Inhibition of HDAC8 in human Jurkat T cells assessed as upregulation of IL23 expression at 10 uM after 6 to 12 hrs by RT-qPCR analysis. It is filed as cell-based. The following applies: time 6-12 hrs.
A further data set deals with HEK293. The experiment in a line: Cytotoxicity against HEK293 cells assessed as reduction in cell viability at 50 uM after 24 hrs by alamar blue assay. It is filed as toxicity, cell-based. The following applies: human, hek293, 24 h.
The target of the next data set is T2, Histone deacetylase 8 (Homo sapiens, UniProt Q9BY41).
T2 sequence (Q9BY41 whole entry): T1 sequence (whole entry)
Put plainly: Competitive inhibition of human HDAC8 using Abz-SRGGK(STFA)FFRR-NH2 (S) as substrate by Lineweaver-burk plot analysis.

Data set [9] addresses T3, Protein deacetylase HDAC6 (Homo sapiens, UniProt Q9UBN7).
T3 sequence (Q9UBN7 whole entry): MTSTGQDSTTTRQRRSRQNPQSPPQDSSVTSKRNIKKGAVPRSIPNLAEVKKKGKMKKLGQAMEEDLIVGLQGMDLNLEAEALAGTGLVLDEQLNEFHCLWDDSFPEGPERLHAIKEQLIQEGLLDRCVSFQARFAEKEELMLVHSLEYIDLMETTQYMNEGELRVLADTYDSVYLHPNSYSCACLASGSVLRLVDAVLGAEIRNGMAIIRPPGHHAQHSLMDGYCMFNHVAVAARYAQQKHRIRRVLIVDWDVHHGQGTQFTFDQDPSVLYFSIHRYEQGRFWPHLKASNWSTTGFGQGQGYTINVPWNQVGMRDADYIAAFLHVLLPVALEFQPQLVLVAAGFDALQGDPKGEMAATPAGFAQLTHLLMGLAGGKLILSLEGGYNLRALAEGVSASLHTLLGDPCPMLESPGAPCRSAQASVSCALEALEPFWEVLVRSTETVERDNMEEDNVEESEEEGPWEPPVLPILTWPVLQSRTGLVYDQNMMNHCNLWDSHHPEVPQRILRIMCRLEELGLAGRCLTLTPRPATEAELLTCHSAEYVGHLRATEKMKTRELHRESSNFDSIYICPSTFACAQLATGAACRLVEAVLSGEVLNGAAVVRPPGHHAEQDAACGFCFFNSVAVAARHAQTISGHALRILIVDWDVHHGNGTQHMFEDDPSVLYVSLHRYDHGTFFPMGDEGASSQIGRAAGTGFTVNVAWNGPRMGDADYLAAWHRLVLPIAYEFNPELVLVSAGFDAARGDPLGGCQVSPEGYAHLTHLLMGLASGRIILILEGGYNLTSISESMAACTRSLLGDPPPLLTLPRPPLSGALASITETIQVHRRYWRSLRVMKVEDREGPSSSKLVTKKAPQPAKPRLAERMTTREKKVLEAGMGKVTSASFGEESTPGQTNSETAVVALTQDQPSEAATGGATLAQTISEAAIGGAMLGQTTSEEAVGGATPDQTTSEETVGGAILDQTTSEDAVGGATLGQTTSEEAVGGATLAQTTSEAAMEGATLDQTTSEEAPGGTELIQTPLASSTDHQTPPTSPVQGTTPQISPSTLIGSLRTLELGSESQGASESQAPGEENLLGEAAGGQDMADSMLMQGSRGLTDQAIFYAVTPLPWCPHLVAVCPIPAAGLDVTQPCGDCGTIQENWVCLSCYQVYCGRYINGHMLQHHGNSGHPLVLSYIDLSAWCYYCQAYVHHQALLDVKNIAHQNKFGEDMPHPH
Put plainly: Inhibition of recombinant human HDAC6 (unknown origin).

The target in data set [10] is T1, Histone deacetylase 8 (Homo sapiens). Put plainly: Inhibition of HDAC8 in human Jurkat T cells assessed as upregulation of IL10 expression after 6 hrs by RT-qPCR analysis. Type of data set: cell-based. The following applies: dose 0.1-10 µM, DDE = dose-dependent effect.
Data set [11] is described as follows: Toxicity in C57BL/6 mouse assessed as change in lung weight at 5 to 10 mg/kg, ip administered 5 days per week for 2 weeks by H and E staining based assay. To be noted: in vivo, 336 h, dose 5-10 mg/kg. Type of data set: organism-based.
A further data set has as its target Histone deacetylase 3 (Homo sapiens, UniProt O15379). Put plainly: Inhibition of recombinant human HDAC3 using p53 (Ac-RHKK(Acetyl)-AMC) as substrate preincubated for 5 mins followed by substrate addition and measured after 30 mins by fluorescence based analysis.
Data set [12] deals with T1, Histone deacetylase 8 (Homo sapiens). The experiment in a line: Reversible binding affinity to recombinant human HDAC8 incubated for 30 mins by jump dilution method.
The target is the same in data set [13]. The experiment in a line: Inhibition of HDAC8 in human Jurkat T cells assessed as upregulation of EOMES expression after 6 hrs by RT-qPCR analysis. It is filed as cell-based. To be noted: dose 0.1-10 µM, DDE = dose-dependent effect.
Data set [14] has the same target. Put plainly: Inhibition of HDAC8 in human Jurkat T cells assessed as upregulation of IL10 expression at 10 uM after 6 to 12 hrs by RT-qPCR analysis. It is filed as cell-based. To be noted: time 6-12 hrs.
Data set [15] can be described thus: Toxicity in C57BL/6 mouse assessed as change in spleen weight at 5 to 10 mg/kg, ip administered 5 days per week for 2 weeks by H and E staining based assay. It is filed as organism-based. The following applies: in vivo, 336 h, dose 5-10 mg/kg.

Activity calls are given as the source filed them. No cut-off for these calls is given here.

Chain of Histone deacetylase 2 (Q92769 whole entry): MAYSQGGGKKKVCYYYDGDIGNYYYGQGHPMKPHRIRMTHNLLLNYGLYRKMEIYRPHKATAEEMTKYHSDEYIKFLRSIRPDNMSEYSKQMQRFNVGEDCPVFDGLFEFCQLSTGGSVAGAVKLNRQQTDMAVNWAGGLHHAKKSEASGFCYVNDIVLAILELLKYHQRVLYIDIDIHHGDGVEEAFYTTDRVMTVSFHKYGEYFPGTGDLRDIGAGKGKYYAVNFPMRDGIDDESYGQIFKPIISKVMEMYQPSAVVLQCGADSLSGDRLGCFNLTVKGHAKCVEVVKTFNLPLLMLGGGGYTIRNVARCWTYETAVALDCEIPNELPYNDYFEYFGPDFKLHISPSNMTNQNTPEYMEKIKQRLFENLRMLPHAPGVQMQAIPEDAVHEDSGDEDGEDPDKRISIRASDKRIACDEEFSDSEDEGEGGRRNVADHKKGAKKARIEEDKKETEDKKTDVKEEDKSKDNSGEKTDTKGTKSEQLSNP
Chain of Histone deacetylase 3 (O15379 whole entry): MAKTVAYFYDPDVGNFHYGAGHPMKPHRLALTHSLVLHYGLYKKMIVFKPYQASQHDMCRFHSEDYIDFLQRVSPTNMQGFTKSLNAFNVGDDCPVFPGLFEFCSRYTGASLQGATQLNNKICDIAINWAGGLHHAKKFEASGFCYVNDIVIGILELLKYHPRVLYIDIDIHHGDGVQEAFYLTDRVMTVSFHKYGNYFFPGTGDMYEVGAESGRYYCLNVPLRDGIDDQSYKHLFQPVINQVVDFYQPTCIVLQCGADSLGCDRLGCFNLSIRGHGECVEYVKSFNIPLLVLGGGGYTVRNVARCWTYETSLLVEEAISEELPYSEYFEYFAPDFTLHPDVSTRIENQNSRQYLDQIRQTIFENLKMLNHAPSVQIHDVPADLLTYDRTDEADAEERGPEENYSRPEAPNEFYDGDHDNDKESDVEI

Turning to `CCCCCCNNC(=O)c1ccc(-c2ccc(CNC(C)=O)cc2)cc1`, the Activity result in data set [1], in data set [2], in data set [3], in data set [6], in data set [11] and in [15] was “Non-Toxic” in each case. For the same compound, the figures for the IC50 (on Histone deacetylase 2; in data set [9]; at Histone deacetylase 3) were 12 µM, more than 20 µM and more than 20 µM, respectively. For the same compound, the inhibition result in data set [4], in [7], in [8] and in data set [14] was “Active” in each case. The inhibition entry in [5], in [10] and in [13] was “Dde” each time. In the data set on HEK293, the Cell viability is 121.3%. In addition, on Histone deacetylase 8, the Ki worked out at 0.0306 µM. Besides, the outcome in data set [12] was Active.

As a reminder, the IC50 is the concentration at which inhibition is half-maximal. By Ki is commonly meant a dissociation constant, usually derived from enzyme kinetics or from competition with a known ligand. Low values mean higher affinity, high ones lower affinity.

(Values after ChEMBL document CHEMBL5150060 (J Med Chem, 2022).)
